Measurements as given in EP4238972A1, “SUBSTITUTED 1,2,4-THIADIAZOLYL PICOLINAMIDES, SALTS OR N-OXIDES THEREOF AND THEIR USE AS HERBICIDALLY ACTIVE SUBSTANCES” (Bayer AG, priority 2022, dated 2023).

Columns and labels:
Type in all cases: in vivo
Amaranthus retroflexus [1] = experiment: Herbicidal post-emergence action; conditions: visual assessment after ca. 3 weeks vs untreated controls
Source text: (§1) Seeds of mono- and dicotyledonous weed plants were sown in plastic pots (double sowings with one species of mono- and one species of dicotyledonous weed plants per pot), in sandy loam, covered with soil and grown under controlled growth conditions. 2 to 3 weeks after sowing, the test plants were sprayed in the single-leaf stage. The compounds according to the invention, formulated in the form of wettable powders (WP) or as emulsifiable concentrates (EC), were sprayed onto the green plant parts as an aqueous suspension or as an emulsion, with the addition of 0.5% of an additive, at an application rate of 600 litres of water per hectare (converted). The test plants were placed in the greenhouse for ca. 3 weeks under optimum growth conditions, and then the effect of the preparations is assessed visually in comparison with untreated controls (herbicidal effect in percent (%): 100% effect = plants have died, 0% effect = as control plants). Seeds of mono- and dicotyledonous weed plants were sown in plastic pots (double sowings with one species of mono- and one species of dicotyledonous weed plants per pot), in sandy loam, covered with soil and grown under controlled growth conditions. 2 to 3 weeks after sowing, the test plants were sprayed in the single-leaf stage. The compounds according to the invention, formulated in the form of wettable powders (WP) or as emulsifiable concentrates (EC), are sprayed onto the green plant parts as an aqueous suspension or as an emulsion, with the addition of 0.5% of an additive, at an application rate of 600 litres of water per hectare (converted). The test plants were placed in the greenhouse for ca. 3 weeks under optimum growth conditions, and then the effect of the preparations is assessed visually in comparison with untreated controls (herbicidal effect in percent (%): 100% effect = plants have died, 0% effect = as control plants).

Setaria viridis [2] = experiment: Herbicidal post-emergence action; conditions: visual assessment after ca. 3 weeks vs untreated controls
Source text: as §1

Poa annua [3] = experiment: Herbicidal post-emergence action; conditions: visual assessment after ca. 3 weeks vs untreated controls
Source text: as §1

Veronica persica [4] = experiment: Herbicidal post-emergence action; conditions: visual assessment after ca. 3 weeks vs untreated controls
Source text: as §1

Echinochloa crus-galli [5] = experiment: Herbicidal pre-emergence action; conditions: 1280 g/ha, visual grading after ca. 3 weeks vs untreated controls
Source text: (§2) Seeds of mono- and dicotyledonous weed plants were sown in plastic pots (double sowings with one species of mono- and one species of dicotyledonous weed plants per pot), in sandy loam, and covered with soil. The compounds according to the invention, formulated in the form of wettable powders (WP) or as emulsifiable concentrates (EC), were applied to the surface of the covering soil as an aqueous suspension or as an emulsion, with the addition of 0.5% of an additive, at an application rate of 600 litres of water per hectare (converted). Following treatment, the pots were placed in a greenhouse and kept under optimum growth conditions for the test plants. The visual grading of the damage to the test plants is carried out after ca. 3 weeks in comparison to untreated controls (herbicidal effect in percent (%): 100% effect = plants have died, 0% effect = as control plants).

Stellaria media [6] = experiment: Herbicidal post-emergence action; conditions: 1280 g/ha, visual assessment after ca. 3 weeks vs untreated controls
Source text: (§3) Seeds of mono- and dicotyledonous weed plants were sown in plastic pots (double sowings with one species of mono- and one species of dicotyledonous weed plants per pot), in sandy loam, covered with soil and grown under controlled growth conditions. 2 to 3 weeks after sowing, the test plants were sprayed in the single-leaf stage. The compounds according to the invention, formulated in the form of wettable powders (WP) or as emulsifiable concentrates (EC), were sprayed onto the green plant parts as an aqueous suspension or as an emulsion, with the addition of 0.5% of an additive, at an application rate of 600 litres of water per hectare (converted). The test plants were placed in the greenhouse for ca. 3 weeks under optimum growth conditions, and then the effect of the preparations is assessed visually in comparison with untreated controls (herbicidal effect in percent (%): 100% effect = plants have died, 0% effect = as control plants).

Echinochloa crus-galli [7] = experiment: Herbicidal post-emergence action; conditions: 1280 g/ha, visual assessment after ca. 3 weeks vs untreated controls
Source text: as §3

Amaranthus retroflexus [8] = experiment: Herbicidal pre-emergence action; conditions: visual grading after ca. 3 weeks vs untreated controls
Source text: as §2, with “plants). Seeds of mono- and dicotyledonous weed plants were sown in plastic pots (double sowings with one species of mono- and one species of dicotyledonous weed plants per pot), in sandy loam, and covered with soil. The compounds according to the invention, formulated in the form of wettable powders (WP) or as emulsifiable concentrates (EC), were applied to the surface of the covering soil as an aqueous suspension or as an emulsion, with the addition of 0.5% of an additive, at an application rate of 600 litres of water per hectare (converted). Following treatment, the pots were placed in a greenhouse and kept under optimum growth conditions for the test plants. The visual grading of the damage to the test plants is carried out after ca. 3 weeks in comparison to untreated controls (herbicidal effect in percent (%): 100% effect = plants have died, 0% effect = as control plants).” for “plants).”

Matricaria inodora [9] = experiment: Herbicidal pre-emergence action; conditions: visual grading after ca. 3 weeks vs untreated controls
Source text: as §2, with “plants). Seeds of mono- and dicotyledonous weed plants were sown in plastic pots (double sowings with one species of mono- and one species of dicotyledonous weed plants per pot), in sandy loam, and covered with soil. The compounds according to the invention, formulated in the form of wettable powders (WP) or as emulsifiable concentrates (EC), were applied to the surface of the covering soil as an aqueous suspension or as an emulsion, with the addition of 0.5% of an additive, at an application rate of 600 litres of water per hectare (converted). Following treatment, the pots were placed in a greenhouse and kept under optimum growth conditions for the test plants. The visual grading of the damage to the test plants is carried out after ca. 3 weeks in comparison to untreated controls (herbicidal effect in percent (%): 100% effect = plants have died, 0% effect = as control plants).” for “plants).”

Poa annua [10] = experiment: Herbicidal pre-emergence action; conditions: visual grading after ca. 3 weeks vs untreated controls
Source text: as §2, with “plants). Seeds of mono- and dicotyledonous weed plants were sown in plastic pots (double sowings with one species of mono- and one species of dicotyledonous weed plants per pot), in sandy loam, and covered with soil. The compounds according to the invention, formulated in the form of wettable powders (WP) or as emulsifiable concentrates (EC), were applied to the surface of the covering soil as an aqueous suspension or as an emulsion, with the addition of 0.5% of an additive, at an application rate of 600 litres of water per hectare (converted). Following treatment, the pots were placed in a greenhouse and kept under optimum growth conditions for the test plants. The visual grading of the damage to the test plants is carried out after ca. 3 weeks in comparison to untreated controls (herbicidal effect in percent (%): 100% effect = plants have died, 0% effect = as control plants).” for “plants).”

Stellaria media [11] = experiment: Herbicidal pre-emergence action; conditions: visual grading after ca. 3 weeks vs untreated controls
Source text: as §2, with “plants). Seeds of mono- and dicotyledonous weed plants were sown in plastic pots (double sowings with one species of mono- and one species of dicotyledonous weed plants per pot), in sandy loam, and covered with soil. The compounds according to the invention, formulated in the form of wettable powders (WP) or as emulsifiable concentrates (EC), were applied to the surface of the covering soil as an aqueous suspension or as an emulsion, with the addition of 0.5% of an additive, at an application rate of 600 litres of water per hectare (converted). Following treatment, the pots were placed in a greenhouse and kept under optimum growth conditions for the test plants. The visual grading of the damage to the test plants is carried out after ca. 3 weeks in comparison to untreated controls (herbicidal effect in percent (%): 100% effect = plants have died, 0% effect = as control plants).” for “plants).”

Kochia scoparia = experiment: Herbicidal post-emergence action; conditions: visual assessment after ca. 3 weeks vs untreated controls
Source text: as §1

Lolium rigidum [12] = experiment: Herbicidal pre-emergence action; conditions: visual grading after ca. 3 weeks vs untreated controls
Source text: as §2, with “plants). Seeds of mono- and dicotyledonous weed plants were sown in plastic pots (double sowings with one species of mono- and one species of dicotyledonous weed plants per pot), in sandy loam, and covered with soil. The compounds according to the invention, formulated in the form of wettable powders (WP) or as emulsifiable concentrates (EC), were applied to the surface of the covering soil as an aqueous suspension or as an emulsion, with the addition of 0.5% of an additive, at an application rate of 600 litres of water per hectare (converted). Following treatment, the pots were placed in a greenhouse and kept under optimum growth conditions for the test plants. The visual grading of the damage to the test plants is carried out after ca. 3 weeks in comparison to untreated controls (herbicidal effect in percent (%): 100% effect = plants have died, 0% effect = as control plants).” for “plants).”

Veronica persica [13] = experiment: Herbicidal pre-emergence action; conditions: 1280 g/ha, visual grading after ca. 3 weeks vs untreated controls
Source text: as §2

Setaria viridis [14] = experiment: Herbicidal pre-emergence action; conditions: 1280 g/ha, visual grading after ca. 3 weeks vs untreated controls
Source text: as §2

Matricaria inodora [15] = experiment: Herbicidal post-emergence action; conditions: 1280 g/ha, visual assessment after ca. 3 weeks vs untreated controls
Source text: as §3

Alopecurus myosuroides = experiment: Herbicidal post-emergence action; conditions: 1280 g/ha, visual assessment after ca. 3 weeks vs untreated controls
Source text: as §3

Lolium rigidum [16] = experiment: Herbicidal post-emergence action; conditions: 1280 g/ha, visual assessment after ca. 3 weeks vs untreated controls
Source text: as §3

Question: What does the source list for `O=C(Nc1ncns1)c1nc(Cl)ccc1Br` [Example I-039, 3-bromo-6-chloro-N-(1,2,4-thiadiazol-5-yl)pyridine-2-carboxamide]?
Answer: herbicidal effect AMARE (Amaranthus retroflexus [1]; 320 g/ha): 100%; herbicidal effect AMARE (Amaranthus retroflexus [1]; 1280 g/ha): 100%; herbicidal effect SETVI (Setaria viridis [2]; 1280 g/ha): 90%; herbicidal effect POAAN (Poa annua [3]; 320 g/ha): 90%; herbicidal effect POAAN (Poa annua [3]; 1280 g/ha): 90%; herbicidal effect VERPE (Veronica persica [4]; 320 g/ha): 90%; herbicidal effect VERPE (Veronica persica [4]; 1280 g/ha): 100%; herbicidal effect ECHCG (Echinochloa crus-galli [5]): 90%; herbicidal effect STEME (Stellaria media [6]): 90%; herbicidal effect ECHCG (Echinochloa crus-galli [7]): 90%; herbicidal effect AMARE (Amaranthus retroflexus [8]; 1280 g/ha): 100%; herbicidal effect MATIN (Matricaria inodora [9]; 1280 g/ha): 100%; herbicidal effect POAAN (Poa annua [10]; 1280 g/ha): 90%; herbicidal effect STEME (Stellaria media [11]; 1280 g/ha): 90%

Question: Which “herbicidal effect KCHSC” value (Kochia scoparia; 320 g/ha) does the source give for `O=C(Nc1ncns1)c1nc(Cl)ccc1OC(F)(F)F` [Example I-013, 6-chloro-N-(1,2,4-thiadiazol-5-yl)-3-(trifluoromethoxy)pyridine-2-carboxamide] here?
Answer: Its value is 90%.

Question: What about the “herbicidal effect KCHSC” value (Kochia scoparia; 1280 g/ha) of the same molecule?
Answer: Its value is 100%.

Question: What about the “herbicidal effect AMARE” value (Amaranthus retroflexus [1]; 1280 g/ha) of the same molecule?
Answer: The value was 100%.

Question: And the “herbicidal effect POAAN” value (Poa annua [3]; 320 g/ha)?
Answer: The value was 90%.

Question: What about the “herbicidal effect POAAN” value (Poa annua [3]; 1280 g/ha) of the same molecule?
Answer: Its value is 100%.

Question: What about the “herbicidal effect STEME” value (Stellaria media [6]) of the same molecule?
Answer: Its value is 90%.

Question: And the “herbicidal effect AMARE” value (Amaranthus retroflexus [8]; 320 g/ha)?
Answer: Its value is 90%.

Question: What about the “herbicidal effect AMARE” value (Amaranthus retroflexus [8]; 1280 g/ha) of the same molecule?
Answer: The value was 100%.

Question: And the “herbicidal effect POAAN” value (Poa annua [10]; 320 g/ha)?
Answer: The value was 100%.

Question: What about the “herbicidal effect POAAN” value (Poa annua [10]; 1280 g/ha) of the same molecule?
Answer: The value was 100%.

Question: What about the “herbicidal effect STEME” value (Stellaria media [11]; 1280 g/ha) of the same molecule?
Answer: The value was 90%.

Question: What about the “herbicidal effect LOLRI” value (Lolium rigidum [12]; 1280 g/ha) of the same molecule?
Answer: Its value is 90%.

Question: For `O=C(Nc1ncns1)c1ncc(Cl)cc1C(F)(F)F` [Example I-036, 5-chloro-N-(1,2,4-thiadiazol-5-yl)-3-(trifluoromethyl)pyridine-2-carboxamide], which “herbicidal effect AMARE” value (Amaranthus retroflexus [1]; 1280 g/ha) is on record?
Answer: Its value is 90%.

Question: And the “herbicidal effect VERPE” value (Veronica persica [4]; 1280 g/ha)?
Answer: The value was 90%.

Question: What about the “herbicidal effect VERPE” value (Veronica persica [13]) of the same molecule?
Answer: The value was 90%.

Question: What about the “herbicidal effect AMARE” value (Amaranthus retroflexus [8]; 1280 g/ha) of the same molecule?
Answer: Its value is 90%.

Question: What does the source list for `O=C(Nc1nc(Cl)ns1)c1nc(F)ccc1Br` [Example I-017, 3-bromo-N-(3-chloro-1,2,4-thiadiazol-5-yl)-6-fluoro-pyridine-2-carboxamide]?
Answer: herbicidal effect KCHSC (Kochia scoparia; 320 g/ha): 90%; herbicidal effect KCHSC (Kochia scoparia; 1280 g/ha): 90%; herbicidal effect AMARE (Amaranthus retroflexus [1]; 320 g/ha): 90%; herbicidal effect AMARE (Amaranthus retroflexus [1]; 1280 g/ha): 90%; herbicidal effect SETVI (Setaria viridis [2]; 320 g/ha): 90%; herbicidal effect SETVI (Setaria viridis [2]; 1280 g/ha): 90%; herbicidal effect POAAN (Poa annua [3]; 320 g/ha): 90%; herbicidal effect POAAN (Poa annua [3]; 1280 g/ha): 90%; herbicidal effect VERPE (Veronica persica [4]; 320 g/ha): 90%; herbicidal effect VERPE (Veronica persica [4]; 1280 g/ha): 90%; herbicidal effect SETVI (Setaria viridis [14]): 100%; herbicidal effect ECHCG (Echinochloa crus-galli [5]): 90%; herbicidal effect MATIN (Matricaria inodora [15]): 90%; herbicidal effect STEME (Stellaria media [6]): 90%; herbicidal effect ALOMY (Alopecurus myosuroides): 90%; herbicidal effect LOLRI (Lolium rigidum [16]): 90%; herbicidal effect AMARE (Amaranthus retroflexus [8]; 1280 g/ha): 100%; herbicidal effect MATIN (Matricaria inodora [9]; 320 g/ha): 100%; herbicidal effect MATIN (Matricaria inodora [9]; 1280 g/ha): 100%; herbicidal effect POAAN (Poa annua [10]; 320 g/ha): 90%; herbicidal effect POAAN (Poa annua [10]; 1280 g/ha): 90%; herbicidal effect STEME (Stellaria media [11]; 320 g/ha): 90%; herbicidal effect STEME (Stellaria media [11]; 1280 g/ha): 90%; herbicidal effect LOLRI (Lolium rigidum [12]; 320 g/ha): 90%; herbicidal effect LOLRI (Lolium rigidum [12]; 1280 g/ha): 90%
